Where “and” joins values, the source holds several entries; their conditions need not be identical. Equal values may be shown once. Entries after “also recorded” stand apart in the source; their conditions may differ. Read-outs that look alike come from different tables or passages of the source.
Tests used:
Assay in all cases: GloSensor cAMP assay, antagonism of PGE2-induced cAMP
Format in all cases: cell-based
EP2 W186A = molecular target: T1, EP2 W186A (Homo sapiens, UniProt P43116, W186A); conditions: 1 h, single experiments 1st-3rd, Fig. 3D, read-out: % cAMP activity (normalized to WT)
T1 construct: The full-length EP2 or EP4 was cloned into the pcDNA3.1 vector; FLAG (N); expressed in transfected cells; host or cells: AD293 cells
Protocol: (§1) The full-length EP2 or EP4 was cloned into the pcDNA3.1 vector (Invitrogen), incorporating an N-terminal FLAG tag. AD293 cells were seeded in six-well plates containing DMEM supplemented with 10% dialyzed FBS 1 day prior to transfection. Following overnight growth, cells were transfected with a 1:1 ratio of receptor construct and GloSensor22F cAMP biosensor (Promega) plasmids.
(§2) Twenty-four hours post-transfection, the cells were transferred to CO2-independent media containing 2% GloSensor cAMP Reagent (Promega) and distributed into 384-well assay plates at a density of 4000 cells per well in 10 μL. […] The plates were then incubated at 37 °C for an additional hour before luminescence measurements were taken using an EnVision plate reader.
(§3) Data analysis was performed using GraphPad Prism software v8.0.1. A nonlinear regression analysis, employing a sigmoidal dose–response model, was conducted to determine the Emax values and half-maximum inhibitory concentrations (IC50) for each compound tested.

EP2 S86A = molecular target: T2, EP2 S86A (Homo sapiens, UniProt P43116, S86A); conditions: single experiments 1st-3rd
T2 construct: The full-length EP2 or EP4 was cloned into the pcDNA3.1 vector; FLAG (N); expressed in transfected cells; host or cells: AD293 cells
Protocol: as §1, §2, §3

EP2 T82A = molecular target: T3, EP2 T82A (Homo sapiens, UniProt P43116, T82A); conditions: 1 h, single experiments 1st-3rd, Fig. 3D, read-out: % cAMP activity (normalized to WT)
T3 construct: The full-length EP2 or EP4 was cloned into the pcDNA3.1 vector; FLAG (N); expressed in transfected cells; host or cells: AD293 cells
Protocol: as §1, §2, §3

EP2 S305A = molecular target: T4, EP2 S305A (Homo sapiens, UniProt P43116, S305A); conditions: single experiments 1st-3rd
T4 construct: The full-length EP2 or EP4 was cloned into the pcDNA3.1 vector; FLAG (N); expressed in transfected cells; host or cells: AD293 cells
Protocol: as §1, §2, §3

EP4 WT = molecular target: T5, EP4 WT (Homo sapiens, UniProt P35408); conditions: 1 h, single experiments 1st-3rd, Fig. S1A
T5 construct: The full-length EP2 or EP4 was cloned into the pcDNA3.1 vector; FLAG (N); expressed in transfected cells; host or cells: AD293 cells
Protocol: as §1, §2, §3

EP2 S308A = molecular target: T6, EP2 S308A (Homo sapiens, UniProt P43116, S308A); conditions: single experiments 1st-3rd
T6 construct: The full-length EP2 or EP4 was cloned into the pcDNA3.1 vector; FLAG (N); expressed in transfected cells; host or cells: AD293 cells
Protocol: as §1, §2, §3

EP2 M116A = molecular target: T7, EP2 M116A (Homo sapiens, UniProt P43116, M116A); conditions: 1 h, single experiments 1st-3rd, Fig. 3D, read-out: % cAMP activity (normalized to WT)
T7 construct: The full-length EP2 or EP4 was cloned into the pcDNA3.1 vector; FLAG (N); expressed in transfected cells; host or cells: AD293 cells
Protocol: as §1, §2, §3

EP2 WT = EP2 WT (Homo sapiens, UniProt P43116); parameters: The full-length EP2 or EP4 was cloned into the pcDNA3.1 vector; FLAG (N); expressed in transfected cells; host or cells: AD293 cells; conditions: for remaining activity at 0.1 µM / remaining activity at 0.01 µM / remaining activity at 0.001 µM / remaining activity at 0.0001 µM / remaining activity at 10 pM / remaining activity at 1 pM / remaining activity at 10 µM / remaining activity at 1 µM: 1 h; for remaining activity at 0.1 µM / remaining activity at 0.01 µM / remaining activity at 0.001 µM / remaining activity at 0.0001 µM / remaining activity at 10 pM / remaining activity at 1 pM / remaining activity at 10 µM / remaining activity at 1 µM / cAMP activity (∆pIC50 from EP2 WT): single experiments 1st-3rd
Protocol: as §1, §2, §3

[1] = 1 h, PF-04418948 log([M]) -8, Fig. 3D, read-out: % cAMP activity (normalized to WT)
[2] = 1 h, PF-04418948 log([M]) -9, Fig. 3D, read-out: % cAMP activity (normalized to WT)
[3] = 1 h, PF-04418948 log([M]) -10, Fig. 3D, read-out: % cAMP activity (normalized to WT)
[4] = 1 h, PF-04418948 log([M]) -11, Fig. 3D, read-out: % cAMP activity (normalized to WT)
[5] = 1 h, PF-04418948 log([M]) -12, Fig. 3D, read-out: % cAMP activity (normalized to WT)
[6] = 1 h, PF-04418948 log([M]) -7, Fig. 3D, read-out: % cAMP activity (normalized to WT)

Sequence of EP2 WT (P43116 whole entry): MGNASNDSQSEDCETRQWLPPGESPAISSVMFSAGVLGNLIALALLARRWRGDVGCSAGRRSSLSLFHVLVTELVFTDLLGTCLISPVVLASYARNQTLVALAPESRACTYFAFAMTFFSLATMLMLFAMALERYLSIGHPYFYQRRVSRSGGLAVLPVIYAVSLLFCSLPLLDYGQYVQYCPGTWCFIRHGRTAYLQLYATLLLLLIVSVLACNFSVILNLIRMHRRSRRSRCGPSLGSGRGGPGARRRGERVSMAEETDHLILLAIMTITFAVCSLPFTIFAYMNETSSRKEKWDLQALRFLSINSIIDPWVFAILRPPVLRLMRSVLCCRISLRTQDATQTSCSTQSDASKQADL
T3 sequence (P43116 whole entry T82A): as the sequence (P43116 whole entry) above, with T82A counted along it
T2 sequence (P43116 whole entry S86A): as the sequence (P43116 whole entry) above, with S86A counted along it
T7 sequence (P43116 whole entry M116A): as the sequence (P43116 whole entry) above, with M116A counted along it
T5 sequence (P35408 whole entry): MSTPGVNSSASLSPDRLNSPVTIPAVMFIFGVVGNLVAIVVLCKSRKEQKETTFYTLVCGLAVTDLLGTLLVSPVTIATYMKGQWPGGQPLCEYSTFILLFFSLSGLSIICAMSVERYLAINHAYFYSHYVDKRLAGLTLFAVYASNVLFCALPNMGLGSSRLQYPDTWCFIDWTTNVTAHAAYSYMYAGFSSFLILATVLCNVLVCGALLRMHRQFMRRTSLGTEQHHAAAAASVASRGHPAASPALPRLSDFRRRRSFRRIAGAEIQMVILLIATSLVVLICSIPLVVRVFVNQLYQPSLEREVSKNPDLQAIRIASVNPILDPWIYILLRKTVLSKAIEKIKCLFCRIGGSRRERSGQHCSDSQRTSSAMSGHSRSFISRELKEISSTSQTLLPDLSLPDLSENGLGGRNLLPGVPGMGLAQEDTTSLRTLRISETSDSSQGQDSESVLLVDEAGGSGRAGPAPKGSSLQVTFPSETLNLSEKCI
T1 sequence (P43116 whole entry W186A): as the sequence (P43116 whole entry) above, with W186A counted along it
T4 sequence (P43116 whole entry S305A): as the sequence (P43116 whole entry) above, with S305A counted along it
T6 sequence (P43116 whole entry S308A): as the sequence (P43116 whole entry) above, with S308A counted along it

- remaining activity at 1 µM (EP2 W186A; PF-04418948 log([M]) -6): 7.94%
- remaining activity at 0.1 µM (EP2 W186A; PF-04418948 log([M]) -7): 18%
- remaining activity at 0.01 µM (EP2 W186A; PF-04418948 log([M]) -8): 24.6%
- remaining activity at 0.001 µM (EP2 W186A; PF-04418948 log([M]) -9): 23.9%
- remaining activity at 0.0001 µM (EP2 W186A; PF-04418948 log([M]) -10): 24.4%
- remaining activity at 10 pM (EP2 W186A; PF-04418948 log([M]) -11): 29.3%
- remaining activity at 1 pM (EP2 W186A; PF-04418948 log([M]) -12): 27.9%
- remaining activity at 0.01 µM (EP2 S86A; [1]): 35%
- remaining activity at 0.001 µM (EP2 S86A; [2]): 61.5%
- remaining activity at 0.0001 µM (EP2 S86A; [3]): 63.4%
- remaining activity at 10 pM (EP2 S86A; [4]): 75.5%
- remaining activity at 1 pM (EP2 S86A; [5]): 72.4%
- cAMP activity (∆pIC50 from EP2 WT) (EP2 S86A; Fig. 3E): 0.200 and 0.410 and 0.340
- remaining activity at 1 µM (EP2 T82A; PF-04418948 log([M]) -6): 9.17%
- remaining activity at 0.1 µM (EP2 T82A; PF-04418948 log([M]) -7): 19.3%
- remaining activity at 0.01 µM (EP2 T82A; PF-04418948 log([M]) -8): 47.4%
- remaining activity at 0.001 µM (EP2 T82A; PF-04418948 log([M]) -9): 55.3%
- remaining activity at 0.1 µM (EP2 S305A; [6]): 22.4%
- remaining activity at 0.01 µM (EP2 S305A; [1]): 45.9%
- remaining activity at 0.0001 µM (EP2 S305A; [3]): 47.9%
- remaining activity at 10 pM (EP2 S305A; [4]): 41.3%
- cAMP activity (∆pIC50 from EP2 WT) (EP2 S305A; Fig. 3E): -1.170 and -1.396 and -1.144
- remaining activity at 100 µM (EP4 WT; read-out: % cAMP activity EP4 (normalized to Grapiprant), ligand log([M]) -4.00): 99.1%
- remaining activity at […] (EP4 WT; read-out: % cAMP activity EP4 (normalized to Grapiprant), ligand log([M]) -4.70): 107%
- remaining activity at […] (EP4 WT; read-out: % cAMP activity EP4 (normalized to Grapiprant), ligand log([M]) -5.40): 103%
- remaining activity at […] (EP4 WT; read-out: % cAMP activity EP4 (normalized to Grapiprant), ligand log([M]) -6.10): 106%
- remaining activity at 0.03236 µM (EP4 WT; read-out: % cAMP activity EP4 (normalized to Grapiprant), ligand log([M]) -7.49): 93.7%
- remaining activity at 0.001288 µM (EP4 WT; read-out: % cAMP activity EP4 (normalized to Grapiprant), ligand log([M]) -8.89): 94%
- remaining activity at 0.1 µM (EP2 S308A; [6]): 27.6%
- remaining activity at 0.01 µM (EP2 S308A; [1]): 78.6%
- remaining activity at 0.001 µM (EP2 S308A; [2]): 89.1%
- remaining activity at 0.0001 µM (EP2 S308A; [3]): 86.2%
- remaining activity at 10 pM (EP2 S308A; [4]): 84.2%
- remaining activity at 1 pM (EP2 S308A; [5]): 83.9%
- cAMP activity (∆pIC50 from EP2 WT) (EP2 S308A; Fig. 3E): -0.810 and -0.830 and -1.090
- remaining activity at 1 µM (EP2 M116A; PF-04418948 log([M]) -6): 5.4%
- remaining activity at 0.1 µM (EP2 M116A; PF-04418948 log([M]) -7): 26.1%
- remaining activity at 0.01 µM (EP2 M116A; PF-04418948 log([M]) -8): 58.4%
- remaining activity at 0.001 µM (EP2 M116A; PF-04418948 log([M]) -9): 56.2%
- remaining activity at 0.0001 µM (EP2 M116A; PF-04418948 log([M]) -10): 64.8%
- remaining activity at 10 pM (EP2 M116A; PF-04418948 log([M]) -11): 75.1%
- remaining activity at 1 pM (EP2 M116A; PF-04418948 log([M]) -12): 77.8%
- remaining activity at 0.1 µM (EP2 WT; PF-04418948 log([M]) -7, Fig. 3D, read-out: % cAMP activity (normalized to WT)): 5.55%
- remaining activity at 0.01 µM (EP2 WT; PF-04418948 log([M]) -8, Fig. 3D, read-out: % cAMP activity (normalized to WT)): 44.3%
- remaining activity at 0.001 µM (EP2 WT; PF-04418948 log([M]) -9, Fig. 3D, read-out: % cAMP activity (normalized to WT)): 82.7%
- remaining activity at 0.0001 µM (EP2 WT; PF-04418948 log([M]) -10, Fig. 3D, read-out: % cAMP activity (normalized to WT)): 105%
- remaining activity at 10 pM (EP2 WT; PF-04418948 log([M]) -11, Fig. 3D, read-out: % cAMP activity (normalized to WT)): 101%
- remaining activity at 1 pM (EP2 WT; PF-04418948 log([M]) -12, Fig. 3D, read-out: % cAMP activity (normalized to WT)): 104%
- remaining activity at 10 µM (EP2 WT; ligand log([M]) -5, Fig. S7B, read-out: % cAMP activity (normalized to WT)): 2.66%
- remaining activity at 1 µM (EP2 WT; ligand log([M]) -6, Fig. S7B, read-out: % cAMP activity (normalized to WT)): 2.72%
- remaining activity at 0.1 µM (EP2 WT; ligand log([M]) -7, Fig. S7B, read-out: % cAMP activity (normalized to WT)): 8.2%
- remaining activity at 0.01 µM (EP2 WT; ligand log([M]) -8, Fig. S7B, read-out: % cAMP activity (normalized to WT)): 63.2%
- remaining activity at 0.001 µM (EP2 WT; ligand log([M]) -9, Fig. S7B, read-out: % cAMP activity (normalized to WT)): 96.2%
- remaining activity at 0.0001 µM (EP2 WT; ligand log([M]) -10, Fig. S7B, read-out: % cAMP activity (normalized to WT)): 92.4%
- remaining activity at 10 pM (EP2 WT; ligand log([M]) -11, Fig. S7B, read-out: % cAMP activity (normalized to WT)): 103%
- remaining activity at 1 pM (EP2 WT; ligand log([M]) -12, Fig. S7B, read-out: % cAMP activity (normalized to WT)): 101%
- remaining activity at 10 µM (EP2 WT; read-out: % cAMP activity on EP2 (normalized to PF-04418948), ligand log([M]) -5, Fig. S1A): 2.66%
- remaining activity at 1 µM (EP2 WT; read-out: % cAMP activity on EP2 (normalized to PF-04418948), ligand log([M]) -6, Fig. S1A): 2.72%
- remaining activity at 0.1 µM (EP2 WT; read-out: % cAMP activity on EP2 (normalized to PF-04418948), ligand log([M]) -7, Fig. S1A): 8.2%
- remaining activity at 0.01 µM (EP2 WT; read-out: % cAMP activity on EP2 (normalized to PF-04418948), ligand log([M]) -8, Fig. S1A): 63.2%
- remaining activity at 0.001 µM (EP2 WT; read-out: % cAMP activity on EP2 (normalized to PF-04418948), ligand log([M]) -9, Fig. S1A): 96.2%
- remaining activity at 0.0001 µM (EP2 WT; read-out: % cAMP activity on EP2 (normalized to PF-04418948), ligand log([M]) -10, Fig. S1A): 92.4%
- remaining activity at 10 pM (EP2 WT; read-out: % cAMP activity on EP2 (normalized to PF-04418948), ligand log([M]) -11, Fig. S1A): 103%
- remaining activity at 1 pM (EP2 WT; read-out: % cAMP activity on EP2 (normalized to PF-04418948), ligand log([M]) -12, Fig. S1A): 101%
- cAMP activity (∆pIC50 from EP2 WT) (EP2 WT; Appendix Fig. S7A): 0.0005 and 0.053 and -0.059
- cAMP activity (∆pIC50 from EP2 WT) (EP2 WT; Fig. 3E): 0.043 and 0.00333 and -0.047
Compound: COc1ccc2cc(OCC3(C(=O)O)CN(C(=O)c4ccc(F)cc4)C3)ccc2c1 [PF-04418948]
- antagonism profile EP2 versus EP4 (in words) (EP2 WT; cAMP accumulation assay upon PGE2 stimulation, Appendix Fig. S1A): selective antagonists of EP2; also recorded: highly selective for EP2 over EP4

— publication PMC12669672, “Structural insights into selective and dual antagonism of EP2 and EP4 prostaglandin receptors” (The EMBO Journal, 2025)
